Measured values taken from patent US20250327032A1, “AGENT FOR AVOIDING IMMUNE RESPONSE OF TRANSGENIC CELLS” (HYPERION DRUG DISCOVERY CO., LTD., priority 2021, published 2025).

Columns and labels:
Type in all cases: cell-based
[1] = system: human mesenchymal stem cells; assay: Introduction of increased amount of GFP mRNA (20 pg/cell), yield of GFP-positive cells; settings: JSH-23 1 μM, versus 20 pg/cell without JSH-23
Experimental: Human mesenchymal stem cells were seeded in a 6-well plate to be about 10,000 cells/cm^2. As a culture solution, αMEM (+10% serum) supplemented with 1 μM of JSH-23 or αMEM (+10% serum) supplemented with 0.1% (v/v) DMSO instead of JSH-23 was used.
(§1) A lipofection solution was prepared by adding Lipofectamine RNAiMAX and fluorescent protein GFP mRNA to OptiMEM. It was prepared so that the amount of mRNA was 10 pg/cell or 20 pg/cell. The prepared lipofection solution was mixed well according to the manufacturer's recommended protocol and allowed to stand at room temperature for about 15 minutes.
Next, a lipofection solution prepared so that the amount of mRNA was 20 pg/cell was added to a plate that used, as a culture solution, αMEM (+10% serum) supplemented with DMSO or JSH-23, respectively. […]
(§2) Twenty-four hours after the final introduction of genes, the cells were detached with a cell detachment solution, centrifuged at 600×g for 5 minutes using a centrifuge, to collect the cells. The collected cells were counted using a hemocytometer. Furthermore, the GFP-positive percentage of the collected cells was measured using a flow cytometer. The yield of the number of GFP-positive cells was calculated from the number of cells counted and the GFP-positive percentage.

[2] = system: human mesenchymal stem cells; assay: Introduction of GFP viral vector (polybrene method), yield of GFP-positive cells; settings: JSH-23 1 μM; GFP viral vector MOI 10, polybrene 5 μg/mL
Experimental: Human mesenchymal stem cells were seeded in a 6-well plate to be about 2,000 cells/cm^2. Human myoblasts were seeded in another 6-well plate to be about 2,000 cells/cm^2. As a culture solution, a basal medium for each cell supplemented with JSH-23 was used. JSH-23 was added at 1 μM to the culture solution used for human mesenchymal stem cells, and at 0.1 μM to the culture solution used for human myoblasts. As a control, a basal medium, i.e., αMEM (+10% serum) for human mesenchymal stem cells and MCDB131 (+10% serum) for human myoblasts, to which 0.1% (v/v) DMSO instead of JSH-23 was added was used as a culture solution.
A mixed solution was prepared by mixing GFP viral vector and a polybrene solution. The amount of GFP viral vector was prepared to be MOI of 10, and the amount of polybrene was prepared to be 5 μg/mL. […]
as §2, with “Four days” for “Twenty-four hours”, “addition” for “final introduction”, “the virus-free culture solution,” for “genes,”, “solution and” for “solution,”

human myoblasts = assay: Introduction of TERT mRNA by lipofection, number of viable cells; settings: JSH-23 1 μM, 5 pg/cell
Experimental: (§3) Human mesenchymal stem cells were seeded in a 6-well plate to be about 10,000 cells/cm^2. Human myoblasts were seeded in another 6-well plate to be about 20,000 cells/cm^2. As a culture solution, a basal medium for each cell supplemented with 1 μM of JSH-23 was used. As a control, a basal medium for each cell supplemented with 0.1% (v/v) DMSO instead of JSH-23 was used as a culture solution.
as §1, with “TERT” for “fluorescent protein GFP”, “OptiMEM. As the TERT mRNA, that containing uridine, or that containing pseudouridine instead of uridine was used.” for “OptiMEM.”, “for human mesenchymal stem cells and 5 pg/cell for human myoblasts.” for “or 20 pg/cell.”
(§4) Next, each lipofection solution was added to the plate seeded with human mesenchymal stem cells or human myoblasts, and cultured in a CO2 incubator at 37° C. for about 1 day (18 hours) (human mesenchymal stem cells) or for 2 days (42 hours) (human myoblasts). After culturing, all the culture solution comprising the lipofection solution was removed and replaced with a new culture solution having the same composition as before the addition of the lipofection solution.
(§5) After another 6 hours, the above lipofection solution was newly prepared, added again to the plate seeded with human mesenchymal stem cells or human myoblasts, and cultured in a CO2 incubator at 37° C. for about 1 day (18 hours) (mesenchymal stem cells) or about 2 days (42 hours) (human myoblasts). These steps were repeated so that the introduction of genes was performed a total of 4 times.
(§6) Twenty-four hours after the final introduction of genes, the cells were detached with a cell detachment solution, centrifuged at 600×g for 5 minutes using a centrifuge, to collect the cells. The collected cells were counted using a hemocytometer.

[3] = system: human mesenchymal stem cells; assay: as above; settings: JSH-23 1 μM, 10 pg/cell
Experimental: as §3
as §1, with “TERT” for “fluorescent protein GFP”, “OptiMEM. As the TERT mRNA, that containing uridine, or that containing pseudouridine instead of uridine was used.” for “OptiMEM.”, “for human mesenchymal stem cells and 5 pg/cell for human myoblasts.” for “or 20 pg/cell.”
as §4, §5, §6

[4] = TERT mRNA containing pseudouridine instead of uridine

Cc1ccc(NCCCc2ccccc2)c(N)c1 [JSH-23]
number of GFP-positive cells [1]: increased
number of GFP-positive cells relative to control [2]: increased
yield (number of viable cells) compared to the control (control set to 1) (human myoblasts; [4]): ≥ 5 times
yield (number of viable cells) compared to the control (control set to 1) (human myoblasts; TERT mRNA containing uridine): ≥ 7 times
yield (number of viable cells) compared to the control (control set to 1) [3, 4]: ≥ 1.3 times
yield (number of viable cells) compared to the control (control set to 1) ([3]; TERT mRNA containing uridine): ≥ 1.5 times
